Columns and labels:
CD8+ T cells = test: exogenous autologous normal donor restimulation assay, TNFα/IFNγ double positive CD8+ T cells by flow cytometry; assay type: cell-based, human; settings: for Fold change (CD8+) vs. DMSO: maximum CD8+ T-cell response (TNFα and IFNγ); for Fold change (CD8+) vs. DMSO / Frequency (TNFα + IFNγ + CD8 T cells): donor independent, peptide pool 10 μg/mL, healthy donors; for Frequency (TNFα + IFNγ + CD8 T cells): maximum CD8+ T-cell response; for Immunogenic (yes/no): positive if CD8+ and/or CD4+ double positive TNFα/IFNγ frequency >=3-fold over DMSO and at least 0.01%
Experimental: (§1) The immunogenicity of neoantigens was assessed using the exogenous autologous normal donor restimulation assay. […] The lyophilized peptides were solubilized in 100% DMSO.
(§2) CD1c+ Dendritic Cells (CD1c+DC) isolated from human healthy PBMCs were thawed using media (IMDM (Gibco) supplemented with glutamine, HEPES, 5% human serum (Sigma), and 1× Pen-Strep). DC cells were resuspended in media supplemented with IL-4 (Peprotech, 20 ng/mL) and GM-CSF (Gibco, 20 ng/mL), plated in 6 well microplates, and rested overnight at 37° C. and 5% CO2 incubator. The following day, DC cells were counted and plated in a 96 well round bottom microplate at a concentration of 30,000 viable cells per well. Lyophilized neoantigen peptide pools (15-mer peptides with 8-mer overlapping peptide sequences) were solubilized in 100% DMSO with a stock concentration of 20 mg/mL Neoantigen peptides pools were added to DCs for a final concentration of 10 μg/mL and rested for 2 hours at 37° C. and 5% CO2 incubator. CEF Peptide Pool “Plus” (Cellular Technologies, Ltd.) was utilized as a positive control (each viral peptide at a final concentration of 4 ug/ml) and DMSO at the same final concentration (0.05%) as the experimental peptides was utilized as a negative control. After 2 hours, DC cells were irradiated with 50 gray of ionizing radiation. Autologous CD3+ Pan-T cells isolated from human normal PBMCs were thawed using media. Following irradiation, autologous Pan-T cells were added to the irradiated DCs at 300,000 viable cells per well. Human IL-15 (Peprotech) was added to all wells at final concentration of 10 ng/ml. Plates were incubated at 37° C. and 5% CO2 incubator for a total of 12 days. Media was refreshed every 2-3 days with IL-15 (R&D System, 10 ng/mL final concentration) and IL-2 (R&D systems, 10 IU/mL final concentration).
(§3) On Day 11, cells were re-stimulated with identical experimental peptide pools or controls, at same concentration as peptide stimulation on Day 1. Protein Inhibitor Cocktail (eBioscience) was added to every well and plate was incubated overnight for 14-16 hours at 37° C. and 5% CO2 incubator. On Day 12, cells were stained for surface and intracellular flow cytometry analysis. The cells were washed with PBS and stained with Live/Dead Fixable Aqua Dead Cell stain (Thermo-Fisher). Following the live/dead stain, cells were blocked using Biotin-Fre Fc Receptor Blocker (Accurate Chemical & Scientific Corp). Extracellular cellular flow panel ([…] per well in 50 μL) consisted of CD3 PerCP-Cy5.5 (Biolegend), CD4 BV421 (Biolegend), and CD8 APC-Cy7 (Biolegend). After extracellular staining, cells were fixed and permeabilized using Foxp3/Transcription Factor Staining Buffer Set (eBioscience) and stained for intracellular proteins (1:50 dilution) using TNFα FITC (R&D Systems) and IFNγ BV785 (Biolegend). Cells were washed and resuspended in stain buffer, analyzed, and recorded in a BD Celesta flow cytometer.
(§4) Flow cytometry analysis was conducted on FlowJo v10.6 software. Cells were gated on live, singlet, CD3+, CD4+ and CD8+ T cells. The CD8+ and CD4+ T cells were analyzed for TNFα and IFNγ expression.
(§5) The immunogenicity of neoantigens was first investigated in 9-16 healthy donors.

CD4+ T cells = test: exogenous autologous normal donor restimulation assay, TNFα/IFNγ double positive CD4+ T cells by flow cytometry; assay type: cell-based, human; settings: donor independent, peptide pool 10 μg/mL, healthy donors; for Fold change (CD4+) vs. DMSO: maximum CD4+ T-cell response (TNFα and IFNγ); for Frequency (TNFα + IFNγ + CD4 T cells): maximum CD4+ T-cell response
Experimental: as §1, §2, §3, §4, §5

Sequence	Fold change (CD8+) vs. DMSO (CD8+ T cells) [fold]	Frequency (TNFα + IFNγ + CD8 T cells) (CD8+ T cells) [%]	Immunogenic (yes/no) (CD8+ T cells)	Fold change (CD4+) vs. DMSO (CD4+ T cells) [fold]	Frequency (TNFα + IFNγ + CD4 T cells) (CD4+ T cells) [%]
NLQLLTQGYSGIWRYP [AS118, neoantigen, alternative splicing of SAMD12]	2.42	0.038	Yes	5.25	0.034
MPGHGAICSGSSRQPD [AS82, neoantigen, alternative splicing of IMPG2]	13.55	0.82	Yes	5.88	0.026
KLCSRQRPDCQPVDSRHGPILSIQHLISALHTGDG [AS123, neoantigen, alternative splicing of VWA2]	115.04	1.09	yes	3.7	0.024
VEDEEKKEGSMLVAPTSPPSLEAGTHFIHLTGTTVSAGVPEEMPATTLRREVF [AS93, neoantigen, alternative splicing of ACIN1]	459.18	0.9	Yes	253.72	1.62
NYGNLFSLAGSLHFTA [AS89, neoantigen, alternative splicing of ZNF727]	142.04	0.26	Yes	7.02	0.061
CLRPSLSLASRGFQNP [AS88, neoantigen, alternative splicing of UPK3B]	3.13	0.063	Yes	15.85	0.062
RYWTPATSSEYSNL [AS143, neoantigen, alternative splicing of MUC16]	12.1	0.13	Yes	3.6	0.033
GGLTLGARNTLTHGSPGPSQATVAVAPLSGRAAVSAAGGCVFLLLPACVPRRCHWIP [FUS16, neoantigen, gene fusion NDUFA11->FUT5]	261.6	5.69	yes	12.58	0.045
QATPSSILCFRLACLWLLRKGLLDLTW [AS15, neoantigen, alternative splicing of IMPG2]	48.05	0.08	Yes	11.36	0.023
SISLTDDEAELPLLDL [AS77, neoantigen, alternative splicing of EP400]	6.59	0.12	Yes	20.73	0.18
NANSRLPEACEK [AS100, neoantigen, alternative splicing of FRYL]	63.36	0.099	Yes	6.02	0.039
HFECYHCEIRIPRKSNGIRGFLLTWRRDGNTSTSVQQTTSSL [FUS11, neoantigen, gene fusion AJUBA->HAUS4]	3.3	0.071	yes	39.13	0.14
CDPAAPRAVSLPGRQGSEGGEGRGLGSRPAVLGRHSSGEGGGPWGELP [AS133, neoantigen, alternative splicing of HRAS]	171.88	0.84	Yes	54.15	0.16
VLTVTSTDQEYLDLSAP [AS44, neoantigen, alternative splicing of FGFR3]	85.94	0.33	Yes	13.45	0.067
EEDREKYRWMAPFVPGQVWTWEYFL [AS28, neoantigen, alternative splicing of HYDIN]	8.82	0.15	Yes	12.43	0.17
AMAKKQRPDTAFWVQH [AS12, neoantigen, alternative splicing of IQGAP3]	6.05	0.13	Yes	8.4	0.017
MSQESDKNGLSSRSWMNTWILPEVL [AS102, neoantigen, alternative splicing of GRHL2]	5.65	0.096	Yes	4.47	0.029
MHRKLQARSPSLCTGHPPQAA [AS75, neoantigen, alternative splicing of TSPAN10]	2.64	0.16	Yes	3.46	0.014
WSQDLQEGFSAPSRISAWFGPP [AS17, neoantigen, alternative splicing of KRT8]	169.53	0.79	Yes	29.97	0.41
